Reference: patent US20050137183A1, “Method and pharmaceutical compositions for treating or inhibiting renal dysfunctions, diseases or disorders, particularly in diabetic patients” (Solvay Pharmaceuticals GmbH, priority 2003, published 2005)

Assays:
Type in all cases: in vivo, rat
[1] = tested on: rats with streptozotocin-induced diabetes; test: Glomerular filtration rate by endogenous creatinine clearance in streptozotocin-induced diabetic rats; settings: 30 mg/kg/day oral, after 18 weeks of treatment
Experimental: (§1) All experiments were conducted in accordance with guidelines for the care and use of laboratory animals. Diabetes was induced in rats by a single tail vein injection of streptozotocin (60 mg/kg b.wt.), without insulin treatment, as recently described in Horcher et al., “Renal endothelin system in diabetes: inhibition and endothelin-A antagonism.”, J. Cardiovasc. Pharmacol. 1998; 31: 492-495. Diabetes was confirmed in streptozotocin treated rats by determining serum glucose concentrations. Only those rats were included having plasma glucose concentrations of >15 mmol/l (hyperglycemic rats, diabetic rats). Three groups of rats were investigated with n 7 to 11 per group: • 1) non-diabetic rats control group; • 2) diabetic rats control group, vehicle treated; • 3) treated diabetic rats group: with test compound of formula I ((3S,2′R)-3-{1-[2′-(ethoxycarbonyl)-4′-phenylbutyl]-cyclopentane-1-carbonylamino}-2,3,4,5-tetrahydro-2-oxo-1H-1-benzazepine-1-acetic-acid), 30 mg/kg/day for 18 weeks.
Glomerular filtration rate was calculated by the endogeneous creatinine clearance. It was observed that administering a compound of formula I as defined above improved the overall glomerular filtration rate.

[2] = tested on: rats with streptozotocin-induced diabetes; test: Plasma concentrations of ET-1, bigET-1 and angiotensin-II in streptozotocin-induced diabetic rats; settings: 30 mg/kg/day oral, 18 weeks
Experimental: as §1
(§2) At baseline, serum glucose and blood pressure were similar in both diabetic groups. Compared to vehicle, the test compound of formula I had no effect on these parameters during the treatment period. After 18 weeks treatment, urinary protein and albumin excretion were measured. Protein excretion in the vehicle-treated group was about 18 mg/24 h; in the group which had received the compound of formula I it was about 4.8 mg/24 h (p=0.03 versus vehicle). Albumin excretion in the vehicle-group was about 0.5 mg/24 h, and in the which had received the compound of formula I it was about 0.1 mg/24 h (p=0.04). […] From the experiments it can be concluded that test compound of formula I decreases protein and albumin excretion in diabetic rats independent of blood pressure. From the results it may be concluded that the compounds of formula I exert a primary effect on end-organ disease.

[3] = tested on: rats with streptozotocin-induced diabetes; test: Blood pressure (tail-cuff plethysmography), heart rate, body weight, glucose and side-effects in streptozotocin-induced diabetic rats
Experimental: as §1
The experiment performed according to the present invention over 18 weeks of treatment provided the following results which are detailed in Table I, and FIGS. 1 and 2. In the context of the present invention, the most important data to be considered are the mean blood pressure (BP; tail-cuff plethysmography), the protein and albumin excretion (mean values, standard deviations) in urine which was collected in metabolic cages over 24 h, and number (n) of animals in each group regarding non-diabetic controls, diabetic vehicle treated controls (=placebo) and test compound treated group.
as §2

[4] = 30 mg/kg/day oral, after 18 weeks of treatment
[5] = 30 mg/kg/day oral, during the treatment period

CCOC(=O)[C@H](CCc1ccccc1)CC1(C(=O)N[C@H]2CCc3ccccc3N(CC(=O)O)C2=O)CCCC1 [test compound of formula I, (3S,2′R)-3-{1-[2′-(ethoxycarbonyl)-4′-phenylbutyl]-cyclopentane-1-carbonylamino}-2,3,4,5-tetrahydro-2-oxo-1H-1-benzazepine-1-acetic-acid]
Glomerular Filtration Rate, final, mean value [1]: 2.014 mL/min | Plasma concentration of ET-1 compared to vehicle [2]: unchanged | Plasma concentration of angiotensin-II compared to vehicle [2]: unchanged | Plasma concentration of bigET-1 compared to vehicle [2]: unchanged | Blood Pressure, mean value ([3]; 30 mg/kg/day oral with food, after 18 weeks of treatment, tail-cuff): 129 mmHg | Side-effects ([3]; 30 mg/kg/day oral, 18 weeks): No side-effects | Body Weight, mean value [3, 4]: 252.7 g | Glucose, final, mean value [3, 4]: 560.33 mg/dL | Heart Rate, mean value [3, 4]: 280 beats/min | Effect on blood pressure compared to vehicle [3, 5]: no effect | Effect on serum glucose compared to vehicle [3, 5]: no effect
